We go through 4 compounds from BindingDB's records for doi:10.1021/jm00107a051 (Merck Sharp and Dohme Research Laboratories, 1991).

SMILES strings stand for the structures.

For orientation: IC50 means the concentration that inhibits the measured activity by half. Low readings indicate inhibition by little substance, high ones a need for much substance.

For this experiment, the target named is T1, Dimer of Gag-Pol polyprotein [489-587] (Human immunodeficiency virus 1, UniProt P12497).
T1 construct: 489-587
The experiment is described as follows: Protease Inhibition Assay. The note with it: pH 5.5; 30 °C. As for the experimental part:
Sensitivity of HIV-1 protease activity to protease inhibitors was determined by a peptide substrate cleavage assay. Protease products were analyzed on a reverse-phase high-pressure liquid chromatograph.
Take `CC(C)(C)OC(=O)N[C@@H](Cc1ccccc1)[C@@H](O)C[C@@H](Cc1ccccc1)C(=O)N[C@H]1c2ccccc2C[C@H]1C(N)=O` [tert-butyl N-[(2S,3S,5R)-5-benzyl-5-{[(1R,2R)-2-carbamoyl-2,3-dihydro-1H-inden-1-yl]carbamoyl}-3-hydroxy-1-phenylpentan-2-yl]carbamate]: the IC50 was 1.8 nM.

In turn, `CC(C)(C)OC(=O)N[C@@H](Cc1ccccc1)[C@@H](O)C[C@@H](Cc1ccccc1)C(=O)N[C@@H]1c2ccccc2C[C@@H]1O` [tert-butyl N-[(2S,3S,5R)-5-benzyl-3-hydroxy-5-{[(1R,2S)-2-hydroxy-2,3-dihydro-1H-inden-1-yl]carbamoyl}-1-phenylpentan-2-yl]carbamate] returned an IC50 of 229 nM.

`CC(C)(C)OC(=O)N[C@@H](Cc1ccccc1)[C@@H](O)C[C@@H](Cc1ccccc1)C(=O)N[C@H]1c2ccccc2[C@@H](N)[C@H]1O` [tert-butyl N-[(2S,3S,5R)-5-{[(1S,2R,3R)-3-amino-2-hydroxy-2,3-dihydro-1H-inden-1-yl]carbamoyl}-5-benzyl-3-hydroxy-1-phenylpentan-2-yl]carbamate] came in with an IC50 of 1.9 nM.

In turn, `CC(C)(C)OC(=O)N[C@@H](Cc1ccccc1)[C@@H](O)C[C@@H](Cc1ccccc1)C(=O)NC1Cc2ccccc2C1` [tert-butyl N-[(2S,3S,5R)-5-benzyl-5-(2,3-dihydro-1H-inden-2-ylcarbamoyl)-3-hydroxy-1-phenylpentan-2-yl]carbamate] returned an IC50 of 19 nM.
